Measured values reported in patent US20250222123A1, “COMPOUND COMPRISING FC-BINDING UNIT, AND CONJUGATE PREPARED USING SAME” (ABTIS CO., LTD., priority 2022, published 2025).
Read-outs that look alike come from different tables or passages of the source.

Tests used:
MIA PaCa-2 (CLDN18.2-) = test: Cell-based ELISA, CLDN18.2-negative cancer cells; type: binding; conditions: parental MIA PaCa-2, CLDN 18.2-negative cell line
Method: (§1) Four types of cell lines (MIA PaCa-2˜CLDN18.2, PATU8988S, parental MIA PaCa-2 (CLDN18.2-), and SNU601) were prepared. At this time, MIA PaCa-2˜CLDN18.2 and PATU8988S are CLDN18.2-positive pancreatic cancer cell lines. MIA PaCa-2 (CLDN18.2-) is a CLDN18.2-negative pancreatic cancer cell line. SNU601 is a CLDN18.2-positive gastric cancer cell line.
(§2) The prepared cell lines were cultured in DMEM containing 10% FBS and 1% penicillin/streptomycin (MIA PaCa-2˜CLDN18.2, MIA PaCa-2 (CLDN18.2-)), RPMI1640 containing 10% FBS and 1% penicillin/streptomycin (SNU601), and DMEM comprising 5% FBS, 5% horse serum, 1% penicillin/streptomycin, and […] L-glutamine (PATU8988S) in an incubator under the conditions of 37° C. and 5% CO2.
(§3) The prepared cell lines were plated on 96-well culture plates, treated with antibody-A, ADC-A, antibody-B, and ADC-B, respectively, and then cell-based ELISA was performed, and OD values were measured. At this time, the measured values are illustrated in FIGS. 38 to 41.
(§4) The measured results were used for regression analysis in GraphPad PRISM® 9.0 software to calculate EC50 and Bmax. The cell binding strengths of antibody-A, ADC-A, antibody-B, and ADC-B to each cell line were evaluated based on the calculated values.

MIA PaCa-2˜CLDN18.2 = test: Cell-based ELISA, binding to antigen-expressing cancer cells
Method: as §1, §2, §3, §4

SNU601 = test: as above; conditions: SNU601 (CLDN18.2+)
Method: as §1, §2, §3, §4

[1] = molecular target: T1, CLDN18.2 virus-like particle (VLP) (Homo sapiens, UniProt P56856); test: Indirect ELISA on CLDN18.2 virus-like particle (VLP); type: binding; conditions: CLDN18.2 (antigen protein), VLP-coated plate
T1 construct: purchased CUSABIO TECHNOLOGY LLC CSB-MP005498HU (A5)
Method: To confirm the binding strength to an antigen, a CLDN18.2 virus-like particle (VLP) in which the claudin 18.2 protein (CLDN18.2) was expressed was prepared. At this time, CLDN18.2˜VLP is CSB-MP005498HU (A5) from CUSABIO TECHNOLOGY LLC.
After a 96-well plate was coated with the CLDN18.2 VLP for ELISA and treated with antibody-A and ADC-A, respectively, indirect ELISA was performed to measure OD values. At this time, the measured values are illustrated in FIG. 37.
The measured results were used for regression analysis in GraphPad PRISM® 9.0 software to calculate EC50 and Bmax. The antigen binding strengths of antibody-A, ADC-A, antibody-B, and ADC-B were evaluated based on the calculated values.

Zolbetuximab [Antibody-B]
binding to cell line (in words) (MIA PaCa-2 (CLDN18.2-)): did not bind
Bmax (MIA PaCa-2˜CLDN18.2): 3.053
Kd (MIA PaCa-2˜CLDN18.2; pancreatic cancer cell line): 0.045 µg/mL
Kd (MIA PaCa-2˜CLDN18.2; read-out: Kd): 0.3 nM
Bmax (SNU601): 1.701
Kd (SNU601; gastric cancer cell line): 0.032 µg/mL
Kd (SNU601; read-out: Kd): 0.213 nM
Bmax [1]: 2.134
